Laboratory results: PubChem BioAssay AID248 (DTP/NCI, 2004)
“And” between values parts separate entries of the source, which are not always exact repeats. Identical values can stand only once. Toxic doses and inconclusive results are not listed. No stated cut-off is given here; in the data, active means T/C of 150% or more; inactive means T/C below 125%.

Test system: L1210 leukemia ip in BDF1 mice, survival T/C
Experiment: NCI In Vivo Anticancer Drug Screen. Data for tumor model L1210 Leukemia (intraperitoneal) in B6D2F1 (BDF1) mice
Conditions: endpoint: mean survival time, higher = longer survival
Method in brief: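 Tumor was transplanted into mice, which were then dosed with test compound or vehicle alone. Survival was recorded for each group, and the treated figure was expressed relative to the control figure.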

[1] = dose: 15.0 mg/kg/injection, schedule: Q01DX Z (ip), vehicle: saline
[2] = dose: 30.0 mg/kg/injection, schedule: Q01DX Z (ip), vehicle: saline
[3] = dose: 100.0 mg/kg/injection, schedule: Q04DX003 (ip), vehicle: saline with Tween-80
[4] = dose: 200.0 mg/kg/injection, schedule: Q04DX003 (ip), vehicle: saline with Tween-80
[5] = dose: 400.0 mg/kg/injection, schedule: Q04DX003 (ip), vehicle: saline with Tween-80
[6] = dose: 100.0 mg/kg/injection, schedule: Q01DX001 (ip), vehicle: carboxymethylcellulose (CMC)
[7] = dose: 200.0 mg/kg/injection, schedule: Q01DX001 (ip), vehicle: carboxymethylcellulose (CMC)
[8] = dose: 400.0 mg/kg/injection, schedule: Q01DX001 (ip), vehicle: carboxymethylcellulose (CMC)
[9] = dose: 100.0 mg/kg/injection, schedule: Q01DX001 (ip), vehicle: saline
[10] = dose: 200.0 mg/kg/injection, schedule: Q01DX001 (ip), vehicle: saline
[11] = dose: 400.0 mg/kg/injection, schedule: Q01DX001 (ip), vehicle: saline
[12] = dose: 400.0 mg/kg/injection, schedule: Q01DX009 (ip), vehicle: Klucel (hydroxypropylcellulose) (HPC)
[13] = dose: 400.0 mg/kg/injection, schedule: Q04DX003 (ip), vehicle: Klucel (hydroxypropylcellulose) (HPC)
[14] = dose: 100.0 mg/kg/injection, schedule: Q04DX003 (ip), vehicle: saline
[15] = dose: 200.0 mg/kg/injection, schedule: Q04DX003 (ip), vehicle: saline
[16] = dose: 400.0 mg/kg/injection, schedule: Q04DX003 (ip), vehicle: saline
[17] = dose: 100.0 mg/kg/injection, schedule: Q04DX003 (ip), vehicle: Klucel (hydroxypropylcellulose) (HPC)
[18] = dose: 200.0 mg/kg/injection, schedule: Q04DX003 (ip), vehicle: Klucel (hydroxypropylcellulose) (HPC)
[19] = dose: 100.0 mg/kg/injection, schedule: Q01DX009 (ip), vehicle: saline
[20] = dose: 200.0 mg/kg/injection, schedule: Q01DX009 (ip), vehicle: saline

Measured: T/C

CN1CCOc2ccccc2OCCOCCOc2ccccc2OCC1
inactive: dose: 100.0 mg/kg/injection, schedule: Q01DX001 (ip), vehicle: Klucel (hydroxypropylcellulose) (HPC) 100 % of control | dose: 200.0 mg/kg/injection, schedule: Q01DX001 (ip), vehicle: Klucel (hydroxypropylcellulose) (HPC) 96 % of control | dose: 400.0 mg/kg/injection, schedule: Q01DX001 (ip), vehicle: Klucel (hydroxypropylcellulose) (HPC) 102 % of control

ClC(CCC(Cl)c1ccccc1)c1ccccc1 (stereo unspecified)
inactive: dose: 100.0 mg/kg/injection, schedule: Q04DX002 (ip), vehicle: Klucel (hydroxypropylcellulose) (HPC) 101 % of control | dose: 200.0 mg/kg/injection, schedule: Q04DX002 (ip), vehicle: Klucel (hydroxypropylcellulose) (HPC) 104 % of control | dose: 400.0 mg/kg/injection, schedule: Q04DX002 (ip), vehicle: Klucel (hydroxypropylcellulose) (HPC) 101 % of control

OCCNCCc1ccccc1
inactive: dose: 75.0 mg/kg/injection, schedule: Q01DX009 (ip), vehicle: carboxymethylcellulose (CMC) 104 % of control | dose: 150.0 mg/kg/injection, schedule: Q01DX009 (ip), vehicle: carboxymethylcellulose (CMC) 107 % of control

O=C(Nc1ccc(C2=NCCN2)cc1)c1ccc(Br)c(C(=O)Nc2ccc(C3=NCCN3)cc2)c1
inactive: [1] 101 % of control | dose: 20.0 mg/kg/injection, schedule: Q01DX Z (ip), vehicle: water 102 % of control | [2] 117 % of control | dose: 30.0 mg/kg/injection, schedule: Q01DX Z (ip), vehicle: water 120 % of control

O=C(O)C1CCC(=O)N1C(=O)OCc1ccccc1 (stereo unspecified)
inactive: [3] 100 % of control | [4] 97 % of control | [5] 95 % of control

CCNC(=O)Nc1ncn[nH]1
inactive: dose: 75.0 mg/kg/injection, schedule: Q01DX001 (ip), vehicle: carboxymethylcellulose (CMC) 102 % of control | dose: 150.0 mg/kg/injection, schedule: Q01DX001 (ip), vehicle: carboxymethylcellulose (CMC) 98 % of control

CCOc1ccccc1C1N2CCN(CC2)C(c2ccccc2OCC)N2CCN1CC2 (stereo unspecified)
inactive: dose: 50.0 mg/kg/injection, schedule: Q01DX001 (ip), vehicle: carboxymethylcellulose (CMC) 100 % of control | [6] 100 % of control | [7] 100 % of control | [8] 105 % of control

O=S(=O)(O)C1(C(Cl)Cl)CCCCC1 (tested in a mixture with another compound)
inactive: dose: 9.0 mg/kg/injection, schedule: Q01DX001 (ip), vehicle: other 100 % of control | dose: 18.0 mg/kg/injection, schedule: Q01DX001 (ip), vehicle: other 105 % of control | dose: 37.0 mg/kg/injection, schedule: Q01DX001 (ip), vehicle: other 105 % of control | dose: 75.0 mg/kg/injection, schedule: Q01DX001 (ip), vehicle: other 104 % of control | dose: 150.0 mg/kg/injection, schedule: Q01DX001 (ip), vehicle: other 111 % of control | dose: 300.0 mg/kg/injection, schedule: Q01DX001 (ip), vehicle: other 115 % of control

C=C(CSCC(=O)O)c1ccccc1
inactive: dose: 100.0 mg/kg/injection, schedule: Q04DX002 (ip), vehicle: saline 105 % of control | dose: 200.0 mg/kg/injection, schedule: Q04DX002 (ip), vehicle: saline 97 % of control | dose: 400.0 mg/kg/injection, schedule: Q04DX002 (ip), vehicle: saline 97 % of control

O=C1NC(c2ccccc2)(c2ccccc2)CN1CCO
inactive: dose: 100.0 mg/kg/injection, schedule: Q01DX001 (ip), vehicle: saline with Tween-80 95 % of control | dose: 200.0 mg/kg/injection, schedule: Q01DX001 (ip), vehicle: saline with Tween-80 95 % of control | dose: 400.0 mg/kg/injection, schedule: Q01DX001 (ip), vehicle: saline with Tween-80 93 % of control

O=c1[nH]cc[nH]1
inactive: [9] 100 % of control | dose: 178.0 mg/kg/injection, schedule: Q01DX009 (ip), vehicle: saline 109 % of control | [10] 105 % of control | dose: 267.0 mg/kg/injection, schedule: Q01DX009 (ip), vehicle: Klucel (hydroxypropylcellulose) (HPC) 106 % of control | dose: 267.0 mg/kg/injection, schedule: Q01DX009 (ip), vehicle: saline 119 % of control | dose: 267.0 mg/kg/injection, schedule: Q04DX003 (ip), vehicle: Klucel (hydroxypropylcellulose) (HPC) 105 % of control | [11] 109 % of control | [12] 117 % of control | [13] 104 % of control | dose: 600.0 mg/kg/injection, schedule: Q04DX003 (ip), vehicle: Klucel (hydroxypropylcellulose) (HPC) 109 % of control

COc1cc([N+](=O)[O-])c2nc(Cl)ccc2c1
inactive: [6] 100 % of control | [7] 88 % of control | [8] 97 % of control

COc1ccc(NC(=O)c2ccc(C(=O)Nc3ccc(OC)cc3)cc2)cc1
inactive: [14] 92 % of control | [15] 97 % of control | [16] 92 % of control

O=C(O)CCCc1ccc([N+](=O)[O-])cc1Cl
inactive: dose: 100.0 mg/kg/injection, schedule: Q01DX009 (ip), vehicle: saline with Tween-80 103 % of control | dose: 200.0 mg/kg/injection, schedule: Q01DX009 (ip), vehicle: saline with Tween-80 105 % of control

CC(=O)OCCc1nnnn1C
inactive: [9] 108 % of control | [10] 104 % of control | [11] 103 % of control

O=S1(=O)CCCO1
inactive: dose: 100.0 mg/kg/injection, schedule: Q01DX009 (ip), vehicle: other 103 % of control | dose: 200.0 mg/kg/injection, schedule: Q01DX009 (ip), vehicle: other 109 % of control

NC(CSCc1ccccc1)C(=O)OCc1ccccc1 (stereo unspecified)
inactive: dose: 100.0 mg/kg/injection, schedule: Q01DX009 (ip), vehicle: Klucel (hydroxypropylcellulose) (HPC) 98 % of control | [17] 100 % of control | dose: 200.0 mg/kg/injection, schedule: Q01DX009 (ip), vehicle: Klucel (hydroxypropylcellulose) (HPC) 92 % of control | [18] 89 % of control | [12] 95 % of control | [13] 96 % of control

CCCNC(=O)/C=C\C(=O)O
inactive: [9] 108 % of control | [19] 93 % of control | [10] 101 % of control | [20] 90 % of control | [11] 106 % of control | dose: 400.0 mg/kg/injection, schedule: Q01DX009 (ip), vehicle: saline 95 % of control

CC(=N\N=C(N)N)/C(=N/N=C(N)N)c1ccccc1
inactive: dose: 3.75 mg/kg/injection, schedule: Q01DX Z (ip), vehicle: saline 92 % of control | dose: 7.5 mg/kg/injection, schedule: Q01DX Z (ip), vehicle: saline 96 % of control | [1] 95 % of control and 102 % of control | [2] 92 % of control | dose: 240.0 mg/kg/injection, schedule: Q01DX009 (oral), vehicle: saline 88 % of control

C=CCOC(=O)Nc1cccc(OC(=O)NC)c1
inactive: [3] 105 % of control | [4] 105 % of control | [5] 100 % of control

O=C(CC(=O)C(F)(F)F)c1ccccc1.O=C(CC(=O)C(F)(F)F)c1ccccc1.[Cu]
inactive: dose: 6.25 mg/kg/injection, schedule: Q01DX009 (ip), vehicle: saline with Tween-80 95 % of control | dose: 6.25 mg/kg/injection, schedule: Q04DX003 (ip), vehicle: saline with Tween-80 91 % of control | dose: 12.5 mg/kg/injection, schedule: Q01DX009 (ip), vehicle: saline with Tween-80 95 % of control | dose: 12.5 mg/kg/injection, schedule: Q04DX003 (ip), vehicle: saline with Tween-80 92 % of control | dose: 25.0 mg/kg/injection, schedule: Q01DX009 (ip), vehicle: saline with Tween-80 92 % of control | dose: 25.0 mg/kg/injection, schedule: Q04DX003 (ip), vehicle: saline with Tween-80 91 % of control

CCCCCCCSCCSCCSCCCCCCC
inactive: [17] 101 % of control | [18] 95 % of control | [13] 95 % of control

CCCCCCCCCCCCCCCCCCN(c1ccc(C(=O)OCC)cc1)S(=O)(=O)c1ccc(C)cc1
inactive: dose: 50.0 mg/kg/injection, schedule: Q01DX009 (ip), vehicle: saline 93 % of control | [19] 93 % of control | [14] 97 % of control | [20] 90 % of control | [15] 94 % of control | [16] 94 % of control
